Assay results from patent US20130225669A1 (priority 2012, published 2013).

Tested on: Bacillus atrophaeus spores
Experiment: Qualitative antibacterial effects on spore strips in Releasat medium
Format: cell-based
Conditions: one week treatment
Protocol: The antibacterial effects of genipin solutions on Bacillus atrophaeus spores was assessed. Using aseptic technique, B. atrophaeus mini spore strips (N=4 per group) with 1.2×10^6 spores per strip (North American Science Associates, Inc., Northwood, Ohio, USA) were either untreated, or treated with either 1 mL PBS, 0.625% genipin in PBS (1.4×10^13 genipin molecules per spore), 90% ethanol, 10% genipin in 90% ethanol (2.2×10^14 genipin molecules per spore), or 10% formalin for one week. Ten percent genipin was used in 90% ethanol for direct comparison to 10% formalin. Solutions were passed through a 0.2 μm Whatman filter (Fisher Scientific, Pittsburgh, Pa., USA) prior to being used to remove extraneous bacteria.
After treating the spore strips for one week they were transferred to Releasat® rapid-readout color changing vials (SGM Biotech, Bozeman, Mont., USA). Releasat® vials have specially formulated soybean-casein digest medium and a pH indicator designed to change color from orange to yellow in the presence of B. atrophaeus growth within 72 hours or remain orange if the spore strips are sterile. The spore strips treated with 10% genipin in 90% ethanol were removed from their respective medium vials and washed in 10 mL of sterile 90% ethanol for 15 minutes after it was noticed that within 90 minutes of placement into the Releasat® medium that the color changed from orange to brown (genipin-induced color change). These spore strips were placed in new Releasat® vials after washing. Spores were incubated at 37° C. and vials were checked after 24, 48, and 72 hours for color change and assessments of turbidity.

| Structure (SMILES) | color of Releasat medium (orange sterile, yellow growth) (10% formalin, read after 72 hours) | turbidity of medium (0.625% genipin in PBS) | color of Releasat medium (orange sterile, yellow growth) (0.625% genipin in PBS, within 24 hours) | turbidity of medium (10% genipin in 90% ethanol) | color of Releasat medium (orange sterile, yellow growth) (10% genipin in 90% ethanol, within 24 hours) |
| --- | --- | --- | --- | --- | --- |
| C=O [formalin, reference compound] | remained orange | – | – | – | – |
| COC(=O)C1=CO[C@@H](O)C2C(CO)=CC[C@H]12 (stereo in doubt) [genipin, methyl (1R,2R,6S)-2-hydroxy-9-(hydroxymethyl)-3-oxabicyclo [4.3.0]nona-4,8-diene-5-carboxylate] | – | less turbid than the PBS and untreated control at all time points | changed to yellow | less turbid than the 90% ethanol and untreated control after 24 and 48 hours only | changed to yellow |
